# Reference: patent US11878001B2, “Use of mavoglurant in the reduction of cocaine use or in preventing relapse into cocaine use” (NOVARTIS AG, priority 2017, dated 2024)
# Entries after “also recorded” stand apart in the source; their conditions may differ.
# What was measured:
# [1] = in vivo; cited from earlier work
# [2] = target: norepinephrine transporter (Homo sapiens, UniProt P23975); conditions: cited from earlier work
# rats = conditions: cited from earlier work
# monoamine oxidase = conditions: cited from earlier work
# NMDA receptors = conditions: cited from earlier work
# mice = conditions: cited from earlier work
# cytochrome P450 1A2 = target: T1, cytochrome P450 1A2 (Homo sapiens, UniProt P05177); conditions: cited from earlier work
# T1 sequence (P05177 1-516): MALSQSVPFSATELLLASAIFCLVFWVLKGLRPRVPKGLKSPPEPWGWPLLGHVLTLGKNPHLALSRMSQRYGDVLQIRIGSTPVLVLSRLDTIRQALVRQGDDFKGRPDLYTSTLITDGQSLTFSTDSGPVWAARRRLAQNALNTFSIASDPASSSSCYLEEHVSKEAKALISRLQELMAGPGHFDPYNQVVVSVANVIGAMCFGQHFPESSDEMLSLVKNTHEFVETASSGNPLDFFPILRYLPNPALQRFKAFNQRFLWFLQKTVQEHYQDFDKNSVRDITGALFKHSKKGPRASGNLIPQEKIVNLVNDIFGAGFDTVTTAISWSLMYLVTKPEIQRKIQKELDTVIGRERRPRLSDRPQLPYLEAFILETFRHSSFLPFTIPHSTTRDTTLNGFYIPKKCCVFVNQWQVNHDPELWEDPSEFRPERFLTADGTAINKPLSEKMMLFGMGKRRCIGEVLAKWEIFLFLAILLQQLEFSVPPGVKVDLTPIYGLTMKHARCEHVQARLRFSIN
# Sprague-Dawley rats [3] = experiment: Cue-induced reinstatement of the cocaine self-administration response after extinction, Phase II; format: in vivo; conditions: 10 mg/kg PO, 1 hour prior to test; after 9-day extinction; N=14-15 per group
# Text: (§1) Evaluation of the Effects of Mavoglurant on Cocaine Dependence and Cocaine Reinstatement Using the Intravenous Self-Administration Model in Sprague-Dawley Rats
# (§2) Adult male Sprague-Dawley rats (300-325 g at arrival) from Harlan Laboratory (Indiana, USA) were used. Upon arrival, the rats were assigned a unique identification numbers (tail marks). Animals were single housed in suspended polycarbonate rat cages with filter tops, and were acclimated for up to 7 days. All rats were examined, handled, and weighed prior to initiation of the study to assure adequate health and suitability. During the course of the study, 12 h/12 h light/dark cycles were maintained. The room temperature was 21-23° C. with a relative humidity maintained at 30-70%. Water was provided ad libitum for the duration of the study.
# (§3) Mavoglurant (free form) was formulated in 0.5% methylcellulose (MC) at 1, 3 and 10 mg/kg and administered orally at a dose volume of 1 ml/kg 60 minutes prior to test.
# Intravenous drug self-administration took place in sound attenuated operant chambers equipped with an exhaust fan (Med Associates, VT). Each chamber contained two levers situated on one wall of the chamber. […]
# During the reinstatement session, which occurred one day after the last extinction session, rats were presented the cues (flash+tone) at the beginning of the session and their lever-press responses recorded. […]
# Sprague-Dawley rats [4] = experiment: Acute effects on intravenous cocaine self-administration (FR5) in rats, Phase I; format: in vivo; conditions: cocaine 0.3 mg/kg/infusion
# Text: as §1, §2
# Cocaine Hydrochloride (Sigma-Aldrich, USA) (1.05 mg/ml which is equivalent to 0.3 mg/kg/infusion under 350 g body weight and 0.1 ml/infusion rate) was dissolved in saline (0.9% NaCl). The formulation was a clear solution.
# as §3
# Intravenous drug self-administration took place in sound attenuated operant chambers equipped with an exhaust fan (Med Associates, VT). Each chamber contained two levers situated on one wall of the chamber. Only one of the two levers was active (located on the left side). Pressing the active lever caused delivery of reinforcer (food or cocaine). […] A stimulus light was located above each lever, but only the one above the active lever was on during the timeout period (defined below). A house light (providing illumination) was located at the top of opposite wall. For food training (see details below), a pellet receptacle was situated between the two levers for delivery of food pellets (Bio-Serv's Dustless Precision Pellets #F0165, 45 mg). […]
# Sequence of norepinephrine transporter (P23975 whole entry, species assumed): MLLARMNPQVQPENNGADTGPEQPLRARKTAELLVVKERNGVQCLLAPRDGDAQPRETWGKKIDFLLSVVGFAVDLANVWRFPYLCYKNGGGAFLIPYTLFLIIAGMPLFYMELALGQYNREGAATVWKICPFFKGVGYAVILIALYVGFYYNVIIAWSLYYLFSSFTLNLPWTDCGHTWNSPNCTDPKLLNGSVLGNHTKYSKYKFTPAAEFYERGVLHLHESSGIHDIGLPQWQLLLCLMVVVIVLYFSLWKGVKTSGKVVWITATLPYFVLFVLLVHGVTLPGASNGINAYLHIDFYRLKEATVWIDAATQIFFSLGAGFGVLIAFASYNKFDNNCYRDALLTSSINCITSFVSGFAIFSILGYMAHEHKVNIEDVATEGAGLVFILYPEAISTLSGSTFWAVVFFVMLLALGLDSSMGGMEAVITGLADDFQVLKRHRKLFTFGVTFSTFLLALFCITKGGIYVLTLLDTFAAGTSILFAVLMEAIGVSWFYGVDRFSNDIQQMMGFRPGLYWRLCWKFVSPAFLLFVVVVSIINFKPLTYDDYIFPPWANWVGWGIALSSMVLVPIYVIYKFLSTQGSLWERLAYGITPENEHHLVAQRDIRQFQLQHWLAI
smiles,measurement,setting,value
CNCCCN1c2ccccc2CCc2ccccc21 [desipramine],cocaine craving,[1],reduce
same,cocaine use,[1],reduce
same,symptoms of cocaine withdrawal,[1],alleviate symptoms of cocaine withdrawal
"Cc1cccc(C#Cc2ccccc2)n1 [MPEP, 2-methyl-6-(2-phenylethynyl)pyridine]",off-target effects on the norepinephrine transporter,[2],off-target effects
same,cocaine self-administration,rats,decreased cocaine self-administration
same,off-target effects on monoamine oxidase,monoamine oxidase,off-target effects
same,off-target effects on NMDA receptors,NMDA receptors,off-target effects
same,cocaine self-administration,mice,decreased cocaine self-administration
"Cc1nc(C#Cc2cccnc2)cs1 [MTEP, 3-[2-(2-methylthiazol-4-yl)ethynyl]pyridine]",cocaine self-administration,rats,decreased cocaine self-administration
same,inhibition of cytochrome P450 1A2,cytochrome P450 1A2,potent inhibition
same,cocaine self-administration,mice,decreased cocaine self-administration
"COC(=O)N1CC[C@@H]2[C@H]1CCC[C@@]2(O)C#Cc1cccc(C)c1 [mavoglurant, (−)-(3aR,4S,7aR)-4-Hydroxy-4-m-tolylethynyl-octahydro-indole-1-carboxylic acid methyl ester]",cue-induced reinstatement of the self-administration response,Sprague-Dawley rats [3],cue-induced reinstatement was suppressed; also recorded: completely prevented cue-induced reinstatement
same,responding on the active lever (cocaine self-administration),"Sprague-Dawley rats [4]; 3 mg/kg orally, 60 minutes prior to test, post hoc p<0.10, N=12",tended to reduce responding on the active lever
same,responding on the active lever (cocaine self-administration),"Sprague-Dawley rats [4]; 10 mg/kg PO, 1 hour prior to test, post hoc p<0.001, N=12",significantly reduced responding
same,responding on the active lever (cocaine self-administration),"Sprague-Dawley rats [4]; 10 mg/kg PO, 1 hour prior to test, post hoc p<0.001, N=12, listed as Mavoglurant",significantly reduced cocaine self-administration
